Like-named read-outs stand apart in the source and are kept apart here. Non-standard residues stand in square brackets, D forms with d. Residues, ends and D or L forms follow the SMILES beside them. 2Nal = N[C@@H](Cc1ccc2ccccc2c1)C(=O)O; Cha = N[C@@H](CC1CCCCC1)C(=O)O
Experiments:
[1] = test system: peptide-producing enzyme (Mono S fraction) from Empedobacter brevis strain FERM BP-8113; experiment: Enzyme inhibitors: effect on production of L-alanyl-L-glutamine; type: biochemical; settings: for Inhibition of the enzyme (in words): serine enzyme inhibitors at 10 mM
[2] = Comparison of ability to catalyze peptide production with known enzymes; type: biochemical; settings: for L-Ala-L-Gln production rate: 100 mM L-alanine methyl ester, 200 mM L-glutamine, borate buffer pH 9.0, 25° C., enzyme amount as in Table 14; for Ratio of L-Ala-L-Gln production rate per enzyme unit weight: enzyme of present invention = 100.0
Description: The peptide formation ability of the present enzyme was compared with that of known enzymes. […] The enzyme uniformly purified in Example 3 was used for the source of the enzyme of the present invention. The reaction was carried out by adding enzyme to 100 μl of borate buffer (pH 9.0) containing 100 mM L-alanine methyl ester and 200 mM L-glutamine and allowing to react at 25° C. Furthermore, enzyme dissolved in 10 mM acetate buffer (pH 5.0) containing 1 mM EDTA was used for the carboxypeptidase, while enzyme dissolved in 10 mM acetate buffer (pH 5.0) containing 2 mM EDTA, 0.1 M KCl and 5 mM dithiothreitol was used for the thiol endopeptidase.

[3] = test system: peptide-producing enzyme (Mono S fraction) from Empedobacter brevis strain FERM BP-8113; experiment: Enzyme substrate specificity (1)-(10), (13), (14); type: biochemical; set-up: key: +: those for which production was confirmed but which were unable to be quantified due to the absence of a standard; a trace amount
Text: Ester specificity was examined in the case of using L-amino acid ester for the carboxy component. […] The amounts of L-Ala-L-Gln produced in this reaction are shown in Table 4 (HCl represents hydrochloride in Table 4). Peptide production was examined in the case of using L-alanine methyl ester for the carboxy component and using various L-amino acids for the amine component. […] (The “+” mark indicates those peptides for which production was confirmed but which were unable to be quantified due to the absence of a standard, while “tr” indicates a trace amount.) Peptide production was examined in the case of using various types of L-amino acid methyl esters for the carboxy component and using L-glutamine for the amine component. […] Peptide production was examined in the case of using various L-amino acid methyl esters for the carboxy component and various L-amino acids for the amine component. […] (The “tr” indicates a trace amount.) Furthermore, Tween-80 was added to the reaction system to a final concentration of 0.1% in the case of using L-Trp-OMe. (The “+” mark indicates those peptides for which production was confirmed but which were unable to be quantified due to the absence of a standard.) […] (The “tr” indicates a trace amount.) Peptide production was examined using various L-amino acid amides for the carboxy component, and various L-amino acids for the amine component. […] Peptide production was examined in the case of using various L-alanine methyl esters for the carboxy component and C-protected L-amino acids for the amine component. […] Peptide production was examined in the case of using various amino acid methyl esters for the carboxy component and methylamine for the amine component. […] Peptide production was examined in the case of using β-amino acid ester for the carboxy component or β-amino acid for the amine component. […] (The “tr” indicates a trace amount.) Oligopeptide production was examined in the case of using L-amino acid ester for the carboxy component and peptide for the amine component. […] Substrate specificity was additionally assessed using the same enzyme fraction as that used in Example 5. […] (A “+” mark indicates those for which production was confirmed but which were unable to be quantified due to the absence of a standard, while “tr” indicates a trace amount). Substrate specificity with respect to oligopeptide production was assessed using the same enzyme fraction as Example 26. […] (A “+” mark indicates those for which production was confirmed but which were unable to be quantified due to the absence of a standard, while “tr” indicates a trace amount). It should be noted that hydrochlorides were used for all of the carboxy components.

[4] = test system: Empedobacter brevis strain FERM BP-8113 microbial cells; experiment: Production of peptide using microbial cells of Empedobacter brevis; type: cell-based; settings: microbial cell suspension 100 g/L mixed 1:1 with 200 mM carboxy component and 400 mM amino acid, pH 9.0, 10 mM EDTA, 18° C., 2 hours
Description: A 50 mL medium (pH 6.2) containing 5 grams (hereinafter, “g”) of glucose, 5 g of ammonium sulfate, 1 g of monopotassium phosphate, 3 g of dipotassium phosphate, 0.5 g of magnesium sulfate, 10 g of yeast extract and 10 g of peptone in 1 liter (hereinafter, “L”) was transferred to a 500 mL Sakaguchi flask and sterilized at 115° C. for 15 minutes. This medium,was then inoculated with one loopful of the culture broth of Empedobacter brevis strain FERM BP-8113 (Depositary institution: National Institute for Advanced Industrial Science and Technology, International Patent Organism Depositary, Address of depositary institution: Chuo Dai-6, 1-1 Higashi 1-Chome, Tsukuba-shi, Ibaraki-ken, Japan, International deposit transfer date: Jul. 8, 2002) that had been cultured at 30° C. for 16 hours in the same medium, followed by shake culturing at 30° C. for 16 hours and 120 strokes/min.

[5] = test system: peptide-producing enzyme (Mono S fraction) from Empedobacter brevis strain FERM BP-8113; experiment: Production of L-alanyl-L-glutamine from L-alanine methyl ester and L-glutamine with enzyme fraction; type: biochemical; settings: for L-Ala-L-Gln: L-alanine methyl ester hydrochloride 100 mM, 18° C., 2 hours
Description: On the other hand, there was hardly any production of L-Ala-L-Gln observed in an enzyme-non-added lot, and the […] was only about 0.07 mM after reacting for 120 minutes.

[6] = test system: peptide-producing enzyme (Mono S fraction) from Empedobacter brevis strain FERM BP-8113; experiment: Enzyme substrate specificity (1)-(10), (13), (14); type: biochemical; settings: pH 9.0, 25° C., 3 hours
Outline: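 Mono S-purified peptide-forming enzyme from Empedobacter brevis FERM BP-8113, given L-amino acid esters (hydrochlorides) or amides as carboxy component with amino acids, C-protected amino acids, methylamine, β-amino acids or peptides as amine component. Dipeptide/oligopeptide product quantified; Tween-80 0.1% added with L-Trp-OMe.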

[7] = test system: enzyme (SP-Sepharose HP fraction) derived from Sphingobacterium sp. strain FERM BP-8124; type: biochemical; set-up: key to Produced peptide (mM): +: those peptides for which production was confirmed but which were unable to be quantified due to the absence of a standard; a trace amount; settings: pH 9.0, 25° C.
Outline: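 Purified enzyme (SP-Sepharose HP fraction, 0.33 units) reacted with carboxy components (100 mM, as hydrochlorides) and amine components (150 mM) in 100 mM borate buffer pH 9.0 with 10 mM EDTA. Reactions ran 1.5 h at 25 °C to assess peptide and oligopeptide formation.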

[8] = inhibitor at 10 mM, pH 9.0, 25° C., 5 minutes, 100 = absence of enzyme inhibitor
[9] = oligopeptide production, amount of enzyme 0.2 units, pH 9.0, 25° C., 3 hours
[10] = 100 mM L-alanine methyl ester hydrochloride, L-amino acid 150 mM
[11] = L-amino acid amide hydrochloride 100 mM as carboxy component, L-amino acid 150 mM
[12] = Table 15-4, amides or methylamine as components, 100 mM / 150 mM, 0.33 units enzyme, 1.5 hours

Molecule: O=C(O)CN(CCN(CC(=O)O)CC(=O)O)CC(=O)O [EDTA, ethylenediaminetetraacetic acid]
- Relative activity of L-Ala-L-Gln production (%) [1, 8]: 96%

Molecule: Bromelain
- L-Ala-L-Gln production rate [2]: 0.0062 mM/min
- Ratio of L-Ala-L-Gln production rate per enzyme unit weight [2]: 0.0010

Molecule: N[C@@H](CC1CCCCC1)C(=O)N[C@@H](Cc1ccccc1)C(=O)O [H-CHA-Phe-OH] (H-[Cha]-Phe-OH)
- Produced peptide (mM) ([3]; carboxy component 40 mM, amine component 40 mM, 0.1 unit enzyme, 25° C., reaction time 3 hr): +

Molecule: O=C(O)CI [Monoiodoacetate]
- Relative activity of L-Ala-L-Gln production (%) ([1]; pH 9): 101%

Molecule: O=S(=O)(F)Cc1ccccc1 [Phenylmethylsulfonyl fluoride]
- Relative activity of L-Ala-L-Gln production (%) [1, 8]: 115%
- Inhibition of the enzyme (in words) [1]: not inhibited

Molecule: N=C(N)Nc1ccc(C(=O)Oc2ccc([N+](=O)[O-])cc2)cc1 [p-Nitrophenyl-p′-guanidino benzoate, p-nitrophenyl-p′-guanidinobenzoate]
- Relative activity of L-Ala-L-Gln production (%) [1, 8]: 0.1%
- Inhibition of the enzyme (in words) [1]: inhibited

Molecule: L-Ala-L-Phe-L-Met
- Produced peptide (mM) [3, 9]: +

Molecule: L-Ala-Gly-L-Phe
- Produced peptide (mM) ([3]; oligopeptide production, amount of enzyme 0.1 units, pH 9.0, 25° C., 3 hours): +

Molecule: c1cnc2c(c1)ccc1cccnc12 [o-Phenanthroline]
- Relative activity of L-Ala-L-Gln production (%) [1, 8]: 96%

Molecule: C[C@H](N)C(=O)N[C@@H](Cc1ccc2ccccc2c1)C(=O)O [H-Ala-2-Nal-OH] (H-Ala-[2Nal]-OH)
- Produced peptide (mM) ([3]; carboxy component 20 mM, amine component 20 mM, 0.1 unit enzyme, 25° C., reaction time 3 hr): +

Molecule: C[C@H](N)C(=O)N[C@@H](CCC(N)=O)C(=O)O [L-Ala-L-Gln, L-alanyl-L-glutamine] (H-Ala-Gln-OH)
- Produced peptide [4]: 68.0 mM
- L-alanyl-L-glutamine produced ([5]; 3 μl enzyme fraction, 100 mM L-alanine methyl ester hydrochloride, 200 mM L-glutamine, pH 9.0, 18° C., enzyme-added lot (FIG. 3)): 83 mM
- L-Ala-L-Gln ([5]; L-glutamine 100 mM): 68.2 mM
- L-Ala-L-Gln ([5]; L-glutamine 110 mM): 72.1 mM
- L-Ala-L-Gln ([5]; L-glutamine 120 mM): 73.3 mM
- L-Ala-L-Gln ([5]; L-glutamine 130 mM): 75.1 mM
- L-Ala-L-Gln ([5]; L-glutamine 150 mM): 75.5 mM
- L-Ala-L-Gln ([5]; L-glutamine 200 mM): 82.0 mM
- Produced peptide [6, 10]: 79.3 mM
- Produced peptide [6, 11]: 7.6 mM
- Produced peptide ([6]; L-amino acid methyl ester hydrochloride 100 mM, 150 mM L-glutamine): 74.6 mM
- L-alanyl-L-glutamine produced ([7]; 10 μl SP-Sepharose HP fraction (about 27 U/ml) in 90 μl with 111 mM L-alanine methyl ester hydrochloride, 222 mM L-glutamine, 120 minutes, enzyme-added lot): 73 mM
- Produced peptide [7, 12]: 0.3 mM

Molecule: L-Ala-L-Ala-L-Gln
- concentration of by-product ([5]; 3 μl enzyme fraction, 100 mM L-alanine methyl ester hydrochloride, 200 mM L-glutamine, pH 9.0, 18° C., enzyme-added lot): 1.3 mM
- Produced peptide ([6]; L-amino acid ester 100 mM, amino acid or peptide amine component 150 mM): 15.2 mM

Molecule: L-Ala-Gly-Gly-L-Phe-L-Met
- Produced peptide (mM) [3, 9]: +

Molecule: Ficin
- L-Ala-L-Gln production rate [2]: 0.0096 mM/min
- Ratio of L-Ala-L-Gln production rate per enzyme unit weight [2]: 0.0017

Molecule: CCN1C(=O)C=CC1=O [N-Ethyl maleimide]
- Relative activity of L-Ala-L-Gln production (%) [1, 8]: 110%

Molecule: Chymopapain: thiol endopeptidase described in EP 359399B1, purified enzyme manufactured by Sigma
- L-Ala-L-Gln production rate [2]: 0.0100 mM/min
- Ratio of L-Ala-L-Gln production rate per enzyme unit weight [2]: 0.0013

Molecule: CSCC[C@H](NC(=O)[C@H](C)N)C(=O)O [L-Ala-L-Met] (H-Ala-Met-OH)
- Produced peptide [4]: 68.3 mM
- Produced peptide [6, 10]: 83.3 mM
- Produced peptide [6, 11]: 3.4 mM
- Produced peptide ([7]; Table 15-1, carboxy component 100 mM, amine component 150 mM, 0.33 units enzyme, 1.5 hours): 86.9 mM
- Produced peptide (mM) [7, 12]: tr

B1: Carboxypeptidase Y: known enzyme described in EP 278787A1, purified enzyme manufactured by Sigma (protein, UniProt P00729 112-532, looked up)
Carboxypeptidase Y: KIKDPKILGIDPNVTQYTGYLDVEDEDKHFFFWTFESRNDPAKDPVILWLNGGPGCSSLTGLFFELGPSSIGPDLKPIGNPYSWNSNATVIFLDQPVNVGFSYSGSSGVSNTVAAGKDVYNFLELFFDQFPEYVNKGQDFHIAGESYAGHYIPVFASEILSHKDRNFNLTSVLIGNGLTDPLTQYNYYEPMACGEGGEPSVLPSEECSAMEDSLERCLGLIESCYDSQSVWSCVPATIYCNNAQLAPYQRTGRNVYDIRKDCEGGNLCYPTLQDIDDYLNQDYVKEAVGAEVDHYESCNFDINRNFLFAGDWMKPYHTAVTDLLNQDLPILVYAGDKDFICNWLGNKAWTDVLPWKYDEEFASQKVRNWTASITDEVAGEVKSYKHFTYLRVFNGGHMVPFDVPENALSMVNEWIHGGFSL
- L-Ala-L-Gln production rate [2]: 0.0257 mM/min
- Ratio of L-Ala-L-Gln production rate per enzyme unit weight [2]: 0.0191

B2: Papain: thiol endopeptidase described in EP 359399B1, purified enzyme manufactured by Sigma (protein, UniProt P00784 134-345, looked up)
Papain: IPEYVDWRQKGAVTPVKNQGSCGSCWAFSAVVTIEGIIKIRTGNLNEYSEQELLDCDRRSYGCNGGYPWSALQLVAQYGIHYRNTYPYEGVQRYCRSREKGPYAAKTDGVRQVQPYNEGALLYSIANQPVSVVLEAAGKDFQLYRGGIFVGPCGNKVDHAVAAVGYGPNYILIKNSWGTGWGENGYIRIKRGTGNSYGVCGLYTSSFYPVKN
- L-Ala-L-Gln production rate [2]: 0.0106 mM/min
- Ratio of L-Ala-L-Gln production rate per enzyme unit weight [2]: 0.0021
